Data as given in patent publication US20210261512A1, “NOVEL COMPOUNDS” (INFLAZOME LIMITED, priority 2018, published 2021).

How the values were obtained:
NLRP3 [1] = target: T1, NLRP3 (Homo sapiens, UniProt Q96P20); test: Human whole blood IL1β release assay; format: cell-based; conditions: LPS 1 μg/ml, nigericin 10 μM, IL-1β AlphaLisa, 10 μM top dose (Example 2: top dose of 30 μM), read-out: HWB IC50
Outline: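 Healthy-donor heparinised human whole blood with 1 μg/ml LPS, compound (8-point half-log dilution, 10 μM top dose unless stated; 0.1% DMSO vehicle) for 3 h at 37 °C, then nigericin 10 μM final for 1 h. Supernatant IL-1β by AlphaLISA; IC50 from 4-parameter variable-slope fit.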

NLRP3 [2] = target: T1, NLRP3; test: THP-1 cells pyroptosis assay; format: cell-based; set-up: Seed THP-1 cells (25,000 cells/well) containing 1.0 μg/ml LPS; host or cells: THP-1; conditions: LPS 1.0 μg/ml, nigericin 5 μM, resazurin readout, 10 μM top dose (Example 2: top dose of 30 μM)
Outline: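 Pyroptosis induced by 5 μM nigericin (1 h) in LPS-primed (1 μg/ml) THP-1 cells, 25,000/well in serum-free RPMI, after 3 h compound pre-treatment (8 points, 10 μM top unless stated). Surviving cells measured with 100 μM resazurin, Ex 560/Em 590; IC50 via variable-slope 4-parameter regression.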

[3] = PK, intravenous administration; format: in vivo; conditions: rat, plasma, male Sprague Dawley rats, dose about 1 mg/kg; for Vd: read-out: Vdss
Outline: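 Male Sprague Dawley rats (6-9 weeks); IV dosing via tail vein as solution in DMSO:water or DMSO:PBS (10:90), oral dosing in 0.5% methylcellulose after overnight fasting. Plasma sampled at 8 time-points to 24 h; parameters derived from LC-MS/MS data.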

T1 sequence (Q96P20 whole entry): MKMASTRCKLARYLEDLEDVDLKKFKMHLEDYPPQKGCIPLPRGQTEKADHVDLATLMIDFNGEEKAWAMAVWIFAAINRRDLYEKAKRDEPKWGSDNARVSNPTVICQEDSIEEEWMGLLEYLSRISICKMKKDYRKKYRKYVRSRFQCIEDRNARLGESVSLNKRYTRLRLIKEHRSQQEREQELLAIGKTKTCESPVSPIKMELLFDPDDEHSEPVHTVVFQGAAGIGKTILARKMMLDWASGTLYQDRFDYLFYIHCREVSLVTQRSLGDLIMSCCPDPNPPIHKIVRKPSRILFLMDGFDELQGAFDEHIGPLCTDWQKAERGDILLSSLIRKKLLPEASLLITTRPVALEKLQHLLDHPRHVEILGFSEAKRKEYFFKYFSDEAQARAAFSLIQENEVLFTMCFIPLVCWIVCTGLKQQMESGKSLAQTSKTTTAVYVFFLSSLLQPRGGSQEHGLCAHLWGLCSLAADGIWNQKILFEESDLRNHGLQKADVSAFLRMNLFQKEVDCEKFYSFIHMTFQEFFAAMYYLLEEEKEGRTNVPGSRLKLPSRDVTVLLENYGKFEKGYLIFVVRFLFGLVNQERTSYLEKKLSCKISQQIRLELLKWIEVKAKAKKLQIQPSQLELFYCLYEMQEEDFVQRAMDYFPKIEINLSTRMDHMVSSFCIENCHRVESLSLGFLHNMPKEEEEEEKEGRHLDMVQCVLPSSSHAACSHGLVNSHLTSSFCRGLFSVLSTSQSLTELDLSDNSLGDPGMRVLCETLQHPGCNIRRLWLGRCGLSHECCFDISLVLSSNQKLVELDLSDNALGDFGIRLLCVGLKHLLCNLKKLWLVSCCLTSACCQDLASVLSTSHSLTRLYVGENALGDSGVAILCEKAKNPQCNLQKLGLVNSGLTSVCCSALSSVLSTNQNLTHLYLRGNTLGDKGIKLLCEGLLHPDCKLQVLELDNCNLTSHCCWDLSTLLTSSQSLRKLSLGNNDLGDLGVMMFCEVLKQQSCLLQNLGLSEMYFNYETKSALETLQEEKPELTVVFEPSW

| Compound | IC50 (NLRP3 [1]) [nM] | IC50 (NLRP3 [2]) [nM] | AUC [3] [ng·h/mL] | clearance [3] [mL/min/kg] | half-life [3] [h] | Vd [3] [L/kg] |
| --- | --- | --- | --- | --- | --- | --- |
| COc1cc(-c2c(C)cc3c(c2Nc2nnc(S(=O)(=O)N4CCC(N(C)C)CC4)[nH]2)CCC3)ccn1 [Example 216, 1-((5-((5-(2-methoxypyridin-4-yl)-6-methyl-2,3-dihydro-1H-inden-4-yl)amino)-4H-1,2,4-triazol-3-yl)sulfonyl)-N,N-dimethylpiperidin-4-amine] | ≤ 1000 | ≤ 500 | 224 | 72.3 | 2.18 | 6.41 |
| COc1cc(-c2ccc3c(c2Nc2nnc(S(=O)(=O)N4CCC(N(C)C)CC4)[nH]2)CCO3)ccn1 [Example 226, 1-((5-((5-(2-methoxypyridin-4-yl)-2,3-dihydrobenzofuran-4-yl)amino)-4H-1,2,4-triazol-3-yl)sulfonyl)-N,N-dimethylpiperidin-4-amine] | ≤ 1000 | ≤ 500 | 216 | 77.2 | 0.78 | 1.48 |
| COc1cc(-c2ccc3c(c2Nc2nnc(S(=O)(=O)N4CC[C@H](C(C)(C)O)C4)[nH]2)CCC3)ccn1 [Example 231, (S)-2-(1-((5-((5-(2-methoxypyridin-4-yl)-2,3-dihydro-1H-inden-4-yl)amino)-4H-1,2,4-triazol-3-yl)sulfonyl)pyrrolidin-3-yl)propan-2-ol] | ≤ 1000 | ≤ 500 | 459 | 36.3 | 0.326 | 0.494 |
| O=S(=O)(c1nnc(Nc2c3c(cc4c2CCC4)CCC3)[nH]1)N1CC2(CCN(C3CC3)C2)C1 [Example 245, 5-((6-cyclopropyl-2,6-diazaspiro[3.4]octan-2-yl)sulfonyl)-N-(1,2,3,5,6,7-hexahydro-s-indacen-4-yl)-4H-1,2,4-triazol-3-amine] | ≤ 5000 | ≤ 500 | 393 | 49.6 | 0.74 | 1.63 |
| CC(C)c1cc(F)cc(C(C)C)c1Nc1nnc(S(=O)(=O)N2CCC3(CCCN3C)CC2)[nH]1 [Example 247, N-(4-fluoro-2,6-diisopropylphenyl)-5-((i-methyl-1,8-diazaspiro[4.5]decan-8-yl)sulfonyl)-4H-1,2,4-triazol-3-amine] | ≤ 500 | ≤ 500 | 253 | 72.5 | 2.72 | 12.7 |
| COc1cc(-c2cc(F)cc(C(C)C)c2Oc2nnc(S(=O)(=O)N3CC4(CCN(C)C4)C3)[nH]2)ccn1 [Example 250, 2-((5-(4-fluoro-2-isopropyl-6-(2-methoxypyridin-4-yl)phenoxy)-4H-1,2,4-triazol-3-yl)sulfonyl)-6-methyl-2,6-diazaspiro[3.4]octane] | ≤ 5000 | ≤ 500 | 392 | 55.2 | 0.26 | 0.6 |
| COc1cc(-c2cc(F)cc(C(C)C)c2Oc2nnc(S(=O)(=O)N3CCC4(CCN4C)CC3)[nH]2)ccn1 [Example 252, 7-((5-(4-fluoro-2-isopropyl-6-(2-methoxypyridin-4-yl)phenoxy)-4H-1,2,4-triazol-3-yl)sulfonyl)-1-methyl-1,7-diazaspiro[3.5]nonane] | ≤ 5000 | ≤ 1000 | 362 | 51.1 | 0.426 | 0.82 |
| COc1cc(-c2cc(F)cc(C(C)C)c2Nc2nnc(S(=O)(=O)N3CCC(CN(C)C)C3)[nH]2)ccn1 (stereo not drawn) [Example 259, 5-((3-((dimethylamino)methyl)pyrrolidin-1-yl)sulfonyl)-N-(4-fluoro-2-isopropyl-6-(2-methoxypyridin-4-yl)phenyl)-4H-1,2,4-triazol-3-amine] | ≤ 1000 | ≤ 500 | 169 | 90.1 | 2.23 | 9.57 |
| CC(C)N1CCC2(C1)CN(S(=O)(=O)c1nnc(Nc3c4c(cc5c3CCC5)CCC4)[nH]1)C2 [Example 264, N-(1,2,3,5,6,7-hexahydro-s-indacen-4-yl)-5-((6-isopropyl-2,6-diazaspiro[3.4]octan-2-yl)sulfonyl)-4H-1,2,4-triazol-3-amine] | ≤ 500 | ≤ 500 | 280 | 59.6 | 1.89 | 5.78 |
| O=S(=O)(c1nnc(Nc2c3c(cc4c2CCC4)CCC3)[nH]1)N1CCC2(CCCN2)CC1 [Example 268, 5-((1,8-diazaspiro[4.5]decan-8-yl)sulfonyl)-N-(1,2,3,5,6,7-hexahydro-s-indacen-4-yl)-4H-1,2,4-triazol-3-amine] | ≤ 1000 | ≤ 500 | 175 | 95.3 | 2.52 | 12.1 |
| CN1CCC12CCN(S(=O)(=O)c1nnc(Nc3c4c(cc5c3CCC5)CCC4)[nH]1)CC2 [Example 270, N-(1,2,3,5,6,7-hexahydro-s-indacen-4-yl)-5-((1-methyl-1,7-diazaspiro[3.5]nonan-7-yl)sulfonyl)-4H-1,2,4-triazol-3-amine] | ≤ 500 | ≤ 500 | 236 | 71 | 2.53 | 9.16 |
| CN(C)C1CCCN(S(=O)(=O)c2nnc(Nc3c4c(cc5c3CCC5)CCC4)[nH]2)CC1 (stereo not drawn) [Example 271, 1-((5-((1,2,3,5,6,7-hexahydro-s-indacen-4-yl)amino)-4H-1,2,4-triazol-3-yl)sulfonyl)-N,N-dimethylazepan-4-amine] | ≤ 1000 | ≤ 500 | 221 | 75 | 3.53 | 14.9 |
| CN1CCC2(C1)CN(S(=O)(=O)c1nnc(Nc3c4c(cc5c3CCC5)CCC4)[nH]1)C2 [Example 274, N-(1,2,3,5,6,7-hexahydro-s-indacen-4-yl)-5-((6-methyl-2,6-diazaspiro[3.4]octan-2-yl)sulfonyl)-4H-1,2,4-triazol-3-amine] | ≤ 500 | ≤ 500 | 271 | 61.6 | 1.64 | 6.2 |
| CN1CCC2(CCN(S(=O)(=O)c3nnc(Nc4c5c(cc6c4CCC6)CCC5)[nH]3)CC2)C1 [Example 276, N-(1,2,3,5,6,7-hexahydro-s-indacen-4-yl)-5-((2-methyl-2,8-diazaspiro[4.5]decan-8-yl)sulfonyl)-4H-1,2,4-triazol-3-amine] | ≤ 500 | ≤ 500 | 239 | 69.7 | 1.94 | 7.51 |
| CN1CCCC12CCN(S(=O)(=O)c1nnc(Nc3c4c(cc5c3CCC5)CCC4)[nH]1)CC2 [Example 278, N-(1,2,3,5,6,7-hexahydro-s-indacen-4-yl)-5-((1-methyl-1,8-diazaspiro[4.5]decan-8-yl)sulfonyl)-4H-1,2,4-triazol-3-amine] | ≤ 500 | ≤ 500 | 278 | 60 | 1.8 | 5.9 |
| COc1cc(-c2cc(F)c3c(c2Nc2nnc(S(=O)(=O)N4CC5(CCN(C)C5)C4)[nH]2)CCC3)ccn1 [Example 299, N-(7-fluoro-5-(2-methoxypyridin-4-yl)-2,3-dihydro-1H-inden-4-yl)-5-((6-methyl-2,6-diazaspiro[3.4]octan-2-yl)sulfonyl)-4H-1,2,4-triazol-3-amine] | ≤ 500 | ≤ 500 | 195 | 103 | 1.33 | 5.21 |
| CN(C)C1CCN(S(=O)(=O)c2nnc(Nc3c4c(c(Cl)c5c3CCC5)CCC4)[nH]2)CC1 [Example 300, 1-((5-((8-chloro-1,2,3,5,6,7-hexahydro-s-indacen-4-yl)amino)-1H-1,2,4-triazol-3-yl)sulfonyl)-N,N-dimethylpiperidin-4-amine] | ≤ 5000 | ≤ 500 | 235 | 70.8 | 2.65 | 10.6 |
| CC(C)c1cc(F)cc(C(C)C)c1Nc1nnc(S(=O)(=O)N2CCC(N(C)C)CC2)[nH]1 [Example 303, 1-((5-((4-fluoro-2,6-diisopropylphenyl)amino)-1H-1,2,4-triazol-3-yl)sulfonyl)-N,N-dimethylpiperidin-4-amine] | ≤ 5000 | ≤ 1000 | 200 | 80.7 | 2.45 | 11.5 |
| CC(C)(O)Cn1ccc(S(=O)(=O)c2nnc(Nc3c4c(cc5c3CCC5)CCC4)[nH]2)n1 [Example 328, 1-(3-((5-((1,2,3,5,6,7-hexahydro-s-indacen-4-yl)amino)-4H-1,2,4-triazol-3-yl)sulfonyl)-1H-pyrazol-1-yl)-2-methylpropan-2-ol] | ≤ 10000 | ≤ 500 | 1240 | 13.5 | 0.653 | 0.518 |
